The test system of assay [1] is rat model of neuropathic pain. Nature of the assay: Neuropathic pain model (partial ligation of the sciatic nerve): paw withdrawal to mechanical pressure and cold (10° C.), general observations. In kind it is in vivo. The method, then: (§1) The efficacy of Compounds 1, 2, 3 and 4 was investigated using rat models of neuropathic and/or persistent inflammatory pain.
(§2) Subjects comprised male, Wistar Hanover rats, 6 animals per group (225±2 g for Compound 1 studies and Compound 2 studies; 214±1 g for Compound 3 studies; 236±1 g for Compound 4 studies).
(§3) Vehicle (12% Captisol®; 0.5% w/v HPMC and 0.1% w/v Tween-80; 5 ml/kg via the intraperitoneal route) was prepared using autoclaved deionized water not more than one week prior to use.
(§4) The details of the studies performed are outlined in Table 1.
(§5) The control for the neuropathic pain model was lamotrigine, administered at 30 mg/kg via oral delivery. The control for the inflammatory pain model was diclofenac, administered at 30 mg/kg via oral delivery. Statistical analysis was performed using one-way ANOVA, and comparisons were performed with time-matched vehicle group using Tukey's HSD test wherein * p<0.05, ** p<0.01, *** p<0.001.
(§6) Treatment groups were randomised and blinded. Groups of 6 rats were used.
Neuropathic pain was induced by partial ligation of the sciatic nerve. Briefly, the rats were anaesthetised (isoflurane/O2 inhalation), the left sciatic nerve exposed at mid-thigh level through a small incision and ⅓ to ½ of the nerve thickness tightly ligated within a 7.0 silk suture. The wound was closed with surgical glue. Animals were allowed to recover and tested 12-15 days following surgery.
Withdrawal thresholds or latencies were measured on both the ipsilateral (ligated) and contralateral (non-ligated) paws, prior to (predose) and then up to 24 h following drug or vehicle administration.
Pre-dose behavioural measurements were obtained by measuring paw withdrawals 14 days following nerve ligation; before the initiation of drug treatment. Following treatment, further readings were taken at 1, 3, 6 and 24 hour after administration.
(§7) Mechanical hyperalgesia was examined in a model of neuropathic pain by measuring paw withdrawal thresholds (PWT) to increasing mechanical force applied to the dorsal surface of the rat paw using an Analgesymeter (Ugo-Basile, Milan) equipped with a wedge-shaped probe (area 1.75 mm^2). Cut-off was set at 250 g and the end-point was taken as withdrawal of the hind paw. Both ipsilateral and contralateral paw withdrawal readings were taken.
(§8) Cold sensitivity was assessed using a commercially available cold-plate (Ugo Basile, Milan). The cold plate was allowed to stabilize for 5 minutes at the set temperature prior to testing. Paw withdrawal latencies (PWL) were determined with the cold-plate set at 10° C. The animals were lightly restrained and each hind paw in turn placed onto the surface of the cold-plate. The end point was taken as the withdrawal of the paw and recorded as the withdrawal latency for the ipsilateral and the contralateral paw. A maximum cut-off of 30 seconds was used for each paw.
(§9) In addition to behavioural pain readings, each rat was observed throughout the study for changes in general behaviour.
(§10) Data were expressed as withdrawal threshold (g) or withdrawal latencies (s) and percentage reversals calculated according to the following formula: […]
(§11) Statistical analysis was carried out on withdrawal threshold readings using ANOVA with repeated measures followed by Tukey's HSD test. The level for statistical significance was set as p<0.05.

Assay [2] concerns rat model of persistent inflammatory pain. The assay can be described thus: Persistent inflammatory pain model (intraplantar FCA): paw withdrawal to mechanical pressure and cold (10° C.), general observations. It is filed as in vivo. Particulars: 30 mg/kg oral. Here is the method: as §1, §2, §3, §4, §5, §6
Mechanical hyperalgesia was examined in a model of persistent inflammatory pain. The hyperalgesia was induced by an intraplantar injection (25 μl) of Freund's Complete Adjuvant (FCA) into the left hind paw.
To assess the effect of the test compound, paw withdrawal thresholds or latencies were measured on both the ipsilateral (FCA-injected) and contralateral (non-injected) paws, prior to (naïve) and 24 hours following FCA injection (predose), and then at 1, 3, 6 and 24 hours after drug or vehicle administration.
as §7, §8, §9, §10, §11

The mark [3] stands for this setting: positive control in Compound 2 Study 1, 30 mg/kg oral, 3 hours post-dose.
Where [4] appears, read: positive control in Compound 3 neuropathic study, 30 mg/kg oral, 3 hours post-dose.
Where [5] appears, read: positive control in Study 2 (Compounds 1 and 2), 30 mg/kg oral, 3 hours post-dose.
Where [6] appears, read: positive control in Compound 2 study, 3 hours post-dose.
[7] abbreviates: positive control in Compound 3 study, 3 hours post-dose.
Where [8] appears, read: positive control in Compound 4 study.

As to `Nc1nnc(-c2cccc(Cl)c2Cl)c(N)n1` [lamotrigine, reference compound], the “peak reversal, cold” value in assay [1] (positive control in Compound 1 Study 1, 30 mg/kg oral, 1 hour post-dose) was 58%; in assay [1] (setting [3]), 58%; in assay [1] (setting [4]), 74%; in assay [1] (setting [5]) it was 67%. Moreover, the “peak reversal, mechanical” value in assay [1] (positive control in Compound 1 Study 1, 30 mg/kg oral, 3 hours post-dose) is listed as 65%; in assay [1] (setting [3]), 54%; in assay [1] (setting [4]), 61%; in assay [1] (setting [5]) it was 67%.
As to `O=C(O)Cc1ccccc1Nc1c(Cl)cccc1Cl` [diclofenac, reference compound], the “peak reversal, mechanical” value came out at 64% in assay [2] (positive control in Compound 1 study, 1 hour post-dose); 66% in assay [2] (setting [6]); 60% in assay [2] (setting [7]). The “peak reversal, cold” value in assay [2] (positive control in Compound 1 study, 3 hours post-dose) is listed as 79%; in assay [2] (setting [6]) it was 69%; in assay [2] (setting [7]), 45%. In addition, the “reversal, cold” value in assay [2] (setting [8]) is recorded as 50%. Moreover, the “reversal, mechanical” value in assay [2] (setting [8]) was found to be 49%.

Values taken from patent US11944623B2, “Modulators of Kv3 channels to treat pain” (Autifony Therapeutics Limited, priority 2015, dated 2024).
